PMC9516332 (Frontiers in Oncology, 2022)
Read-outs that look alike come from different tables or passages of the source.

Tested on: 134 cancer cell lines
Test: Cell viability assay (ATPlite, 72 hours), IC50 on cancer cell line panel

## CCN1CCN(c2ccc(Nc3cc(N(C)C(=O)Nc4c(Cl)c(OC)cc(OC)c4Cl)ncn3)cc2)CC1 [infigratinib]
HEC-6, read-out: IC50 in cell proliferation assay, HEC-6 cell line (EGFR p.A289V)
  IC50: > 3.16 µM
Homo sapiens, 769-P, read-out: IC50 in cell proliferation assay, cell line 769-P
  IC50: > 3.16 µM
Homo sapiens, 786-0, read-out: IC50 in cell proliferation assay, cell line 786-O
  IC50: > 3.16 µM
Homo sapiens, A 172, read-out: IC50 in cell proliferation assay, cell line A-172
  IC50: 0.041 µM
Homo sapiens, A204, read-out: IC50 in cell proliferation assay, cell line A-204
  IC50: 0.063 µM
Homo sapiens, A498, read-out: IC50 in cell proliferation assay, cell line A-498
  IC50: 2.97 µM
Homo sapiens, A549, read-out: IC50 in cell proliferation assay, cell line A-549
  IC50: > 3.16 µM
Homo sapiens, A704, read-out: IC50 in cell proliferation assay, cell line A-704
  IC50: > 3.16 µM
Homo sapiens, A-375, read-out: IC50 in cell proliferation assay, cell line A-375 (BRAF p.V600E)
  IC50: > 3.16 µM
Homo sapiens, A-427, read-out: IC50 in cell proliferation assay, cell line A-427
  IC50: 1.79 µM
Homo sapiens, ACHN, read-out: IC50 in cell proliferation assay, cell line ACHN
  IC50: 2.75 µM
Homo sapiens, AN3-CA, read-out: IC50 in cell proliferation assay, cell line AN3-CA (FGFR2 p.N549K)
  IC50: 0.203 µM
Homo sapiens, ASPC1, read-out: IC50 in cell proliferation assay, cell line AsPC-1
  IC50: > 3.16 µM
Homo sapiens, AU565, read-out: IC50 in cell proliferation assay, cell line AU565 (ERBB2 amplification)
  IC50: > 3.16 µM
Homo sapiens, BT-20, read-out: IC50 in cell proliferation assay, cell line BT-20
  IC50: > 3.16 µM
Homo sapiens, BT-474, read-out: IC50 in cell proliferation assay, cell line BT-474 (ERBB2 amplification)
  IC50: > 3.16 µM
Homo sapiens, BT-549, read-out: IC50 in cell proliferation assay, cell line BT-549
  IC50: > 3.16 µM
Homo sapiens, BXPC-3, read-out: IC50 in cell proliferation assay, cell line BxPC-3
  IC50: > 3.16 µM
Homo sapiens, C-33-A, read-out: IC50 in cell proliferation assay, cell line C-33 A
  IC50: > 3.16 µM
Homo sapiens, CAL-27, read-out: IC50 in cell proliferation assay, cell line CAL-27
  IC50: > 3.16 µM
Homo sapiens, CCF-STTG1, read-out: IC50 in cell proliferation assay, cell line CCF-STTG1
  IC50: > 3.16 µM
Homo sapiens, CCRF-CEM, read-out: IC50 in cell proliferation assay, cell line CCRF-CEM
  IC50: > 3.16 µM
Homo sapiens, COLO 205, read-out: IC50 in cell proliferation assay, cell line COLO 205 (BRAF p.V600E)
  IC50: > 3.16 µM
Homo sapiens, COLO-829, read-out: IC50 in cell proliferation assay, cell line COLO 829 (BRAF p.V600E)
  IC50: > 3.16 µM
Homo sapiens, DLD-1, read-out: IC50 in cell proliferation assay, cell line DLD-1
  IC50: > 3.16 µM
Homo sapiens, DU-4475, read-out: IC50 in cell proliferation assay, cell line DU4475 (BRAF p.V600E)
  IC50: > 3.16 µM
Homo sapiens, Daoy, read-out: IC50 in cell proliferation assay, cell line Daoy
  IC50: > 3.16 µM
Homo sapiens, DoTc2-4510, read-out: IC50 in cell proliferation assay, cell line DoTc2 4510
  IC50: > 3.16 µM
Homo sapiens, FaDu, read-out: IC50 in cell proliferation assay, cell line FaDu
  IC50: > 3.16 µM
Homo sapiens, G-361, read-out: IC50 in cell proliferation assay, cell line G-361 (BRAF p.V600E)
  IC50: > 3.16 µM
Homo sapiens, HCC827, read-out: IC50 in cell proliferation assay, cell line HCC827 (EGFR exon19del)
  IC50: 5 µM
Homo sapiens, HCC4006, read-out: IC50 in cell proliferation assay, cell line HCC4006 (EGFR exon19del)
  IC50: 6.22 µM
Homo sapiens, HCT-15, read-out: IC50 in cell proliferation assay, cell line HCT 15
  IC50: > 3.16 µM
Homo sapiens, HCT-116, read-out: IC50 in cell proliferation assay, cell line HCT 116
  IC50: > 3.16 µM
Homo sapiens, HEC-1, read-out: IC50 in cell proliferation assay, HEC-1 cell line
  IC50: 3.04 µM
Homo sapiens, HEC-1B, read-out: IC50 in cell proliferation assay, HEC-1-B cell line (EGFR p.A864V)
  IC50: > 3.16 µM
Homo sapiens, HL-60, read-out: IC50 in cell proliferation assay, HL-60 cell line
  IC50: > 3.16 µM
Homo sapiens, HT, read-out: IC50 in cell proliferation assay, HT cell line
  IC50: > 3.16 µM
Homo sapiens, HT-1080, read-out: IC50 in cell proliferation assay, HT-1080 cell line
  IC50: 2.99 µM
Homo sapiens, Hs-578T, read-out: IC50 in cell proliferation assay, Hs 578T cell line
  IC50: > 3.16 µM
Homo sapiens, HuTu80, read-out: IC50 in cell proliferation assay, HuTu 80 cell line
  IC50: 0.039 µM
Homo sapiens, J82, read-out: IC50 in cell proliferation assay, J82 cell line
  IC50: > 3.16 µM
Homo sapiens, Jurkat E6.1, read-out: IC50 in cell proliferation assay, Jurkat E6.1 cell line
  IC50: > 3.16 µM
Homo sapiens, K562, read-out: IC50 in cell proliferation assay, K-562 cell line
  IC50: > 3.16 µM
Homo sapiens, KATO III, read-out: IC50 in cell proliferation assay, KATO III cell line (FGFR2 amplification)
  IC50: 0.008 µM
Homo sapiens, KG-1, read-out: IC50 in cell proliferation assay, KG-1 cell line (FGFR1OP2-FGFR1)
  IC50: 0.00229 µM
Homo sapiens, KLE, read-out: IC50 in cell proliferation assay, KLE cell line
  IC50: > 3.16 µM
Homo sapiens, KMS-11, read-out: IC50 in cell proliferation assay, KMS-11 cell line (FGFR3 p.Y373C)
  IC50: 0.026 µM
Homo sapiens, KU812, read-out: IC50 in cell proliferation assay, Ku812 cell line
  IC50: > 3.16 µM
Homo sapiens, Kasumi 1, read-out: IC50 in cell proliferation assay, Kasumi-1 cell line (KIT p.N822K)
  IC50: 3.42 µM
Homo sapiens, LC-2-ad, read-out: IC50 in cell proliferation assay, LC-2/ad cell line (CCDC6-RET)
  IC50: 3.45 µM
Homo sapiens, LNCaP-Clone-FGC, read-out: IC50 in cell proliferation assay, LNCaP clone FGC cell line
  IC50: > 3.16 µM
Homo sapiens, LS174T, read-out: IC50 in cell proliferation assay, LS174T cell line
  IC50: > 3.16 µM
Homo sapiens, LS-411N, read-out: IC50 in cell proliferation assay, LS411N cell line (BRAF p.V600E)
  IC50: > 3.16 µM
Homo sapiens, LoVo, read-out: IC50 in cell proliferation assay, LoVo cell line
  IC50: > 3.16 µM
Homo sapiens, MCF7, read-out: IC50 in cell proliferation assay, MCF-7 cell line
  IC50: > 3.16 µM
Homo sapiens, MDA-MB-231, read-out: IC50 in cell proliferation assay, MDA-MB-231 cell line
  IC50: > 3.16 µM
Homo sapiens, MDA-MB-453, read-out: IC50 in cell proliferation assay, MDA-MB-453 cell line
  IC50: 0.655 µM
Homo sapiens, MDA-MB-468, read-out: IC50 in cell proliferation assay, MDA-MB-468 cell line
  IC50: > 3.16 µM
Homo sapiens, MG-63, read-out: IC50 in cell proliferation assay, MG-63 cell line
  IC50: 0.189 µM
Homo sapiens, MIA PaCa-2, read-out: IC50 in cell proliferation assay, MIA PaCa-2 cell line
  IC50: > 3.16 µM
Homo sapiens, MKN-45, read-out: IC50 in cell proliferation assay, MKN45 cell line (MET amplification)
  IC50: 4.26 µM
Homo sapiens, MOLM-13, read-out: IC50 in cell proliferation assay, MOLM-13 cell line (FLT3 ITD)
  IC50: 3.99 µM
Homo sapiens, MOLT-4, read-out: IC50 in cell proliferation assay, MOLT-4 cell line
  IC50: > 3.16 µM
